From patent US20160083357A1, “NOVEL TETRAZOLONE DERIVATIVES” (Hoffmann-La Roche Inc., priority 2013, published 2016) come the findings set out here.

For one assay, the target named is T1, human CB2 receptors (Homo sapiens, UniProt P34972).
T1 construct: expressed in transfected cells; host or cells: CHO cells
Nature of the assay: cAMP assay, human CB2. The class given is cell-based. The protocol:
(§1) CHO cells expressing human CB1 or CB2 receptors are seeded 17-24 hours prior to the experiment 50.000 cells per well in a black 96 well plate with flat clear bottom (Corning Costar #3904) in DMEM (Invitrogen No. 31331), lx HT supplement, with 10% fetal calf serum and incubated at 5% CO2 and 37° C. in a humidified incubator. The growth medium was exchanged with Krebs Ringer Bicarbonate buffer with 1 mM IBMX and incubated at 30° C. for 30 min. Compounds were added to a final assay volume of 100 μl and incubated for 30 min at 30° C. Using the cAMP-Nano-TRF detection kit the assay (Roche Diagnostics) was stopped by the addition of 50 μl lysis reagent (Tris, NaCl, 1.5% Triton X100, 2.5% NP40, 10% NaN3) and 50 μl detection solutions (20 μM mAb Alexa700-cAMP 1:1, and 48 μM Ruthenium-2-AHA-cAMP) and shaken for 2 h at room temperature. The time-resolved energy transfer is measured by a TRF reader (Evotec Technologies GmbH), equipped with a ND:YAG laser as excitation source. The plate is measured twice with the excitation at 355 nm and at the emission with a delay of 100 ns and a gate of 100 ns, total exposure time 10 s at 730 (bandwidth 30 nm) or 645 nm (bandwidth 75 nm), respectively. The FRET signal is calculated as follows: FRET=T730-Alexa730-P(T645-B645) with P=Ru730-B730/Ru645-B645, where T730 is the test well measured at 730 nM, T645 is the test well measured at 645 nm, B730 and B645 are the buffer controls at 730 nm and 645 nm, respectively. cAMP content is determined from the function of a standard curve spanning from 10 μM to 0.13 nM cAMP.
(§2) EC50 values were determined using Activity Base analysis (ID Business Solution, Limited). The EC50 values for a wide range of cannabinoid agonists generated from this assay were in agreement with the values published in the scientific literature.
In general terms: cAMP levels reflect the balance of adenylyl cyclase and phosphodiesterase activity.

In a further assay the target is T2, human CB1 receptors (Homo sapiens, UniProt P21554).
T2 construct: expressed in transfected cells; host or cells: CHO cells
T2 sequence (P21554 whole entry): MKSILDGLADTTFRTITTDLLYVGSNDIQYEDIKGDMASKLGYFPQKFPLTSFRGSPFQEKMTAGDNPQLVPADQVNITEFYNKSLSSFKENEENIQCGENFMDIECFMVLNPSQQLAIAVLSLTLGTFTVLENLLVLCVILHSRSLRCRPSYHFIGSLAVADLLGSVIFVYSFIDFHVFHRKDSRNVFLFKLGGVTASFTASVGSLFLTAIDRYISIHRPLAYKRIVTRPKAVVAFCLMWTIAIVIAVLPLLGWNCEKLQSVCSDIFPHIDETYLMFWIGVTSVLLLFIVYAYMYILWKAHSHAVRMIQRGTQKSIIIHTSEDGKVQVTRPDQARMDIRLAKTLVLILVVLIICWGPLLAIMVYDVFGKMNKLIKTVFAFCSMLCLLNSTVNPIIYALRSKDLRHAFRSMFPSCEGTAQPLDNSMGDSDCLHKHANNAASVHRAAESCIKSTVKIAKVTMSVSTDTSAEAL
The assay is described as follows: cAMP assay, human CB1. The class given is cell-based. The protocol:
as §1, §2

Setting [1] is: functional cAMP assay, CHO cells expressing human CB2, read-out: Ec50: CB2 - hu cAMP.
The mark [2] stands for this setting: functional cAMP assay, CHO cells expressing human CB1, read-out: Ec50: CB1 - hu cAMP.

Each structure is given as a SMILES string. Like-named read-outs stand apart in the source and are kept apart here.

T1 sequence (P34972 whole entry): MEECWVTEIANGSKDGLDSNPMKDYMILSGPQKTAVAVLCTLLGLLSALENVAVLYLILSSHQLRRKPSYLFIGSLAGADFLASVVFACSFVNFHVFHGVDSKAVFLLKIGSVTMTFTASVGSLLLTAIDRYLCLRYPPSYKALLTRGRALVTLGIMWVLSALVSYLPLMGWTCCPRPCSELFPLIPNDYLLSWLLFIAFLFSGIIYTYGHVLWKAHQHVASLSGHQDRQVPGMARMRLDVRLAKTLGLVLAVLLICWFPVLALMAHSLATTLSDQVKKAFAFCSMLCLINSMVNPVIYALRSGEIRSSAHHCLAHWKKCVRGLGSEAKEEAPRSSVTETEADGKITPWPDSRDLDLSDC

As usually defined, the EC50 is the concentration that produces a half-maximal response. `COc1ccc(CCN(C)C(=O)n2nnn(-c3cccc(F)c3)c2=O)cc1OC` [Example 1, 4-(3-Fluoro-phenyl)-5-oxo-4,5-dihydro-tetrazole-1-carboxylic acid [2-(3,4-dimethoxy-phenyl)-ethyl]-methyl-amide]: the EC50 is 0.6 nM at human CB2 receptors (setting [1]) and > 10 µM on human CB1 receptors (setting [2]).

Consider `CN(CCC#N)C(=O)n1nnn(-c2cccc(F)c2)c1=O` [Example 2, 4-(3-Fluoro-phenyl)-5-oxo-4,5-dihydro-tetrazole-1-carboxylic acid (2-cyano-ethyl)-methyl-amide], for which the EC50 at human CB2 receptors (setting [1]) was 11.5 nM; at human CB1 receptors (setting [2]), > 10 µM.

Consider `NC(=O)C1CCCN(C(=O)n2nnn(-c3cccc(F)c3)c2=O)C1` (stereo not drawn) [Example 3, 1-[4-(3-Fluoro-phenyl)-5-oxo-4,5-dihydro-tetrazole-1-carbonyl]-piperidine-3-carboxylic acid amide], for which the EC50 is 15.9 nM on human CB2 receptors (setting [1]) and > 10 µM at human CB1 receptors (setting [2]).

With `O=C(N1CCOCC1)n1nnn(-c2cccc(F)c2)c1=O` [Example 4, 1-(3-Fluoro-phenyl)-4-(morpholine-4-carbonyl)-1,4-dihydro-tetrazol-5-one], the EC50 on human CB2 receptors (setting [1]) is 3 nM; on human CB1 receptors (setting [2]) it was > 10 µM.

With `CN(CCc1ccccc1)C(=O)n1nnn(-c2cccc(F)c2)c1=O` [Example 5, 4-(3-Fluoro-phenyl)-5-oxo-4,5-dihydro-tetrazole-1-carboxylic acid methyl-phenethyl-amide], the EC50 is 0.8 nM at human CB2 receptors (setting [1]) and > 10 µM at human CB1 receptors (setting [2]).

For the compound `CCN(Cc1ccncc1)C(=O)n1nnn(-c2cccc(F)c2)c1=O` [Example 6, 4-(3-Fluoro-phenyl)-5-oxo-4,5-dihydro-tetrazole-1-carboxylic acid ethyl-pyridin-4-ylmethyl-amide], the EC50 is 0.8 nM at human CB2 receptors (setting [1]) and > 10 µM on human CB1 receptors (setting [2]).

With `CCN(CCOC)C(=O)n1nnn(-c2cccc(F)c2)c1=O` [Example 7, 4-(3-Fluoro-phenyl)-5-oxo-4,5-dihydro-tetrazole-1-carboxylic acid ethyl-(2-methoxy-ethyl)-amide], the EC50 at human CB2 receptors is 2.7 nM; at human CB1 receptors, > 10 µM.

For the compound `CN(CCCc1ccccc1)C(=O)n1nnn(-c2cccc(F)c2)c1=O` [Example 8, 4-(3-Fluoro-phenyl)-5-oxo-4,5-dihydro-tetrazole-1-carboxylic acid methyl-(3-phenyl-propyl)-amide], the EC50 at human CB2 receptors (setting [1]) is 1.2 nM; at human CB1 receptors (setting [2]) it was > 10 µM.

Take `O=C(N1CCCC1Cc1ccccc1)n1nnn(-c2cccc(F)c2)c1=O` (stereo not drawn) [Example 9, 1-(2-Benzyl-pyrrolidine-1-carbonyl)-4-(3-fluoro-phenyl)-1,4-dihydro-tetrazol-5-one]: the values for the half-maximal effective concentration (EC50) on human CB2 receptors (setting [1]) and on human CB1 receptors (setting [2]) were 4.1 nM and > 10 µM, respectively.

Consider `O=C(N1CCCC1c1ccc(F)cc1)n1nnn(-c2cccc(F)c2)c1=O` (stereo not drawn) [Example 10, 1-(3-Fluoro-phenyl)-4-[2-(4-fluoro-phenyl)-pyrrolidine-1-carbonyl]-1,4-dihydro-tetrazol-5-one], for which the EC50 on human CB2 receptors (setting [1]) was 5.9 nM; at human CB1 receptors (setting [2]), > 10 µM.

For the compound `O=C(N1CCc2cc(F)ccc2C1)n1nnn(-c2cccc(F)c2)c1=O` [Example 11, 1-(6-Fluoro-3,4-dihydro-1H-isoquinoline-2-carbonyl)-4-(3-fluoro-phenyl)-1,4-dihydro-tetrazol-5-one], the values for the EC50 on human CB2 receptors (setting [1]) and at human CB1 receptors (setting [2]) were 78.9 nM and > 10 µM, respectively.

`CCN(Cc1ccccc1)C(=O)n1nnn(-c2cccc(F)c2)c1=O` [Example 12, 4-(3-Fluoro-phenyl)-5-oxo-4,5-dihydro-tetrazole-1-carboxylic acid benzyl-ethyl-amide]: the figures for the concentration giving a half-maximal response (EC50) at human CB2 receptors and on human CB1 receptors were 0.6 nM and > 10 µM, respectively.

`CC[C@H](C)[C@@H](C(=O)OC)N(C)C(=O)n1nnn(-c2cccc(F)c2)c1=O` [Example 13, (2S,3S)-2-{[4-(3-Fluoro-phenyl)-5-oxo-4,5-dihydro-tetrazole-1-carbonyl]-methyl-amino}-3-methyl-pentanoic acid methyl ester]: the EC50 at human CB2 receptors (setting [1]) is 11.2 nM; on human CB1 receptors (setting [2]), > 10 µM.

On to `O=c1n(Cc2ccc(F)cc2)nnn1-c1cccc(F)c1` [Example 14, 1-(4-Fluoro-benzyl)-4-(3-fluoro-phenyl)-1,4-dihydro-tetrazol-5-one], for which the EC50 on human CB2 receptors (setting [1]) is 1180 nM; at human CB1 receptors (setting [2]) it was > 10 µM.

On to `CC(C)(C)OC(=O)N1CCC(n2nnn(-c3cccc(F)c3)c2=O)CC1` [Example 15, 4-[4-(3-Fluoro-phenyl)-5-oxo-4,5-dihydro-tetrazol-1-yl]-piperidine-1-carboxylic acid tert-butyl ester], for which the concentration giving a half-maximal response (EC50) on human CB2 receptors (setting [1]) was 3000 nM; at human CB1 receptors (setting [2]), > 10 µM.

In the case of `CCOC(=O)C(C)(C)n1nnn(-c2cccc(F)c2)c1=O` [Example 16, 2-[4-(3-Fluoro-phenyl)-5-oxo-4,5-dihydro-tetrazol-1-yl]-2-methyl-propionic acid ethyl ester], the EC50 is 327 nM at human CB2 receptors (setting [1]) and > 10 µM at human CB1 receptors (setting [2]).

As for `Cn1c(Cn2nnn(-c3cccc(F)c3)c2=O)nnc1S(C)(=O)=O` [Example 17, 1-(3-Fluoro-phenyl)-4-(5-methanesulfonyl-4-methyl-4H-[1,2,4]triazol-3-ylmethyl)-1,4-dihydro-tetrazol-5-one], the values for the EC50 at human CB2 receptors (setting [1]) and at human CB1 receptors (setting [2]) were 898 nM and > 10 µM, respectively.

Regarding `Cn1nccc1C1CCCN1C(=O)n1nnn(-c2cccc(F)c2)c1=O` (stereo not drawn) [Example 18, 1-(3-Fluoro-phenyl)-4-[2-(2-methyl-2H-pyrazol-3-yl)-pyrrolidine-1-carbonyl]-1,4-dihydro-tetrazol-5-one], the EC50 was 219 nM on human CB2 receptors (setting [1]) and > 10 µM at human CB1 receptors (setting [2]).

Take `Cn1ccc(C2CCCN2C(=O)n2nnn(-c3cccc(F)c3)c2=O)n1` (stereo not drawn) [Example 19, 1-(3-Fluoro-phenyl)-4-[2-(1-methyl-1H-pyrazol-3-yl)-pyrrolidine-1-carbonyl]-1,4-dihydro-tetrazol-5-one]: the values for the concentration giving a half-maximal response (EC50) at human CB2 receptors (setting [1]) and on human CB1 receptors (setting [2]) were 25 nM and > 10 µM, respectively.

For `Cc1cc(C2CCCN2C(=O)n2nnn(-c3cccc(F)c3)c2=O)on1` (stereo not drawn) [Example 20, 1-(3-Fluoro-phenyl)-4-[2-(3-methyl-isoxazol-5-yl)-pyrrolidine-1-carbonyl]-1,4-dihydro-tetrazol-5-one], the concentration giving a half-maximal response (EC50) at human CB2 receptors (setting [1]) is 6.9 nM; at human CB1 receptors (setting [2]), > 10 µM.

In the case of `COC[C@@H]1CCCN1C(=O)n1nnn(-c2cccc(F)c2)c1=O` [Example 21, 1-(3-Fluoro-phenyl)-4-((S)-2-methoxymethyl-pyrrolidine-1-carbonyl)-1,4-dihydro-tetrazol-5-one], the EC50 at human CB2 receptors (setting [1]) is 97.5 nM; at human CB1 receptors (setting [2]), > 10 µM.

For `NC(=O)[C@@H]1CCCN1C(=O)n1nnn(-c2cccc(F)c2)c1=O` [Example 22, (S)-1-[4-(3-Fluoro-phenyl)-5-oxo-4,5-dihydro-tetrazole-1-carbonyl]-pyrrolidine-2-carboxylic acid amide], the results for the EC50 on human CB2 receptors (setting [1]) and at human CB1 receptors (setting [2]) were 1920 nM and > 10 µM, respectively.

Turning to `CC(=O)NC1CCN(C(=O)n2nnn(-c3cccc(F)c3)c2=O)C1` (stereo not drawn) [Example 23, N-{1-[4-(3-Fluoro-phenyl)-5-oxo-4,5-dihydro-tetrazole-1-carbonyl]-pyrrolidin-3-yl}-acetamide], the EC50 was 31.4 nM on human CB2 receptors (setting [1]) and > 10 µM on human CB1 receptors (setting [2]).

Turning to `COC(=O)C1CN(C(=O)n2nnn(-c3cccc(F)c3)c2=O)C1` [Example 24, 1-[4-(3-Fluoro-phenyl)-5-oxo-4,5-dihydro-tetrazole-1-carbonyl]-azetidine-3-carboxylic acid methyl ester], the 50% effective concentration (EC50) on human CB2 receptors (setting [1]) was 122 nM; on human CB1 receptors (setting [2]), > 10 µM.
